These are literature values, as cited in publication PMC7898221 (Drug Design, Development and Therapy, 2021).

Molecules are shown by their SMILES.

Regarding `N[C@@H](CC(=O)N1CCc2c(nc(C(F)(F)F)nc2C(F)(F)F)C1)CN1CC(F)(F)CCC1=O` [Gemigliptin], the “Fraction metabolized by CYP3A4 into LC15-0636” value in the data set with CYP3A4 is listed as ~ 10%. For the same compound, the “Time to maximum plasma concentration (Tmax)” value (after dosing) was 0.5 to 3.0 h.
For the compound `CC(C)c1nc(N(C)S(C)(=O)=O)nc(-c2ccc(F)cc2)c1/C=C/[C@@H](O)C[C@@H](O)CC(=O)O` [Rosuvastatin], the “Terminal t1/2” value was 12.3 ± 5.8 h. Besides, the time to peak (Tmax) (after dosing) is 1.0 to 5.0 h.

As usually defined, the Tmax is the time from dosing to the highest level.
